Measurements reported in publication doi:10.1101/2020.07.01.182642v1 (biorxiv, 2020).

Experiments:
Details in all cases: binder
PRKAA1 = PRKAA1 (Homo sapiens, UniProt Q13131)
CAMK1G = CAMK1G (Homo sapiens, UniProt Q96NX5)
CSNK1G1 = CSNK1G1 (Homo sapiens, UniProt Q9HCP0)
CSNK2A1 = CSNK2A1 (Homo sapiens, UniProt P68400)
PAK7 = PAK7 (Homo sapiens, UniProt Q9P286)
CHEK2 = CHEK2 (Homo sapiens, UniProt O96017)
GAK = biological target: T1, GAK (Homo sapiens, UniProt O14976)
T1 sequence (O14976 1-1311): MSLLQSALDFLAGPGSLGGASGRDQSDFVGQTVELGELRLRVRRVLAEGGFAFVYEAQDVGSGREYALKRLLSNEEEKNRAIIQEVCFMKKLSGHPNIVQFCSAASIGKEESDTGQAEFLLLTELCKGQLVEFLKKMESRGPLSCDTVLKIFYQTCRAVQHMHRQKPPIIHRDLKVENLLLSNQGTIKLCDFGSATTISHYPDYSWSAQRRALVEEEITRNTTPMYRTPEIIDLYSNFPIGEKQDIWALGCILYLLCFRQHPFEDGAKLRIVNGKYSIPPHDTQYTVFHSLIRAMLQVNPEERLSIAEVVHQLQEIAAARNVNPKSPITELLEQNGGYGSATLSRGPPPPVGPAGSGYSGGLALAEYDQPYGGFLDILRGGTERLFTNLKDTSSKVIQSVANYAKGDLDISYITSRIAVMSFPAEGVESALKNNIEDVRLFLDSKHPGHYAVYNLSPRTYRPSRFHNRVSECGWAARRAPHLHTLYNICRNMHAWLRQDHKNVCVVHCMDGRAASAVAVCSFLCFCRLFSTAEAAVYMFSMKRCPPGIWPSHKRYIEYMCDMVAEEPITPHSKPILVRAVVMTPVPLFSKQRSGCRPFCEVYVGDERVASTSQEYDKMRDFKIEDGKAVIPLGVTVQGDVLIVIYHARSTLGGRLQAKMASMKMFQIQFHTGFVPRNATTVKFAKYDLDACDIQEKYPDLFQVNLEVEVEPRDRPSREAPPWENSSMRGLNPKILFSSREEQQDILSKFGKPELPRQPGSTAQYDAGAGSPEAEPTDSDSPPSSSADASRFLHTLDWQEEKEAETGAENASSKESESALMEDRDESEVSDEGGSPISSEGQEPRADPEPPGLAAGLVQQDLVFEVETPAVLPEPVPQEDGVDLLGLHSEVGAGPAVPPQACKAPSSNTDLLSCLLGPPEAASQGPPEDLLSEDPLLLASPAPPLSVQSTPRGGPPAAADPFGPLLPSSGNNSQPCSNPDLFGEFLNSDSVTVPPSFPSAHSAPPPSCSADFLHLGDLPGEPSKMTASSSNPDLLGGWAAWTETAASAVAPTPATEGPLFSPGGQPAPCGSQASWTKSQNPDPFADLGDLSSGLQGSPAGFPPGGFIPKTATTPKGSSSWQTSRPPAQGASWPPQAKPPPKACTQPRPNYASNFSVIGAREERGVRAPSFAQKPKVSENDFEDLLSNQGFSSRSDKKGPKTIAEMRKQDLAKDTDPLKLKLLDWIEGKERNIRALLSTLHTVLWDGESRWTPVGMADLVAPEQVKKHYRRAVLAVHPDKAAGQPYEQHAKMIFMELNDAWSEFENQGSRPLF

PLK4 = biological target: T2, PLK4 (Homo sapiens, UniProt O00444)
T2 sequence (O00444 1-970): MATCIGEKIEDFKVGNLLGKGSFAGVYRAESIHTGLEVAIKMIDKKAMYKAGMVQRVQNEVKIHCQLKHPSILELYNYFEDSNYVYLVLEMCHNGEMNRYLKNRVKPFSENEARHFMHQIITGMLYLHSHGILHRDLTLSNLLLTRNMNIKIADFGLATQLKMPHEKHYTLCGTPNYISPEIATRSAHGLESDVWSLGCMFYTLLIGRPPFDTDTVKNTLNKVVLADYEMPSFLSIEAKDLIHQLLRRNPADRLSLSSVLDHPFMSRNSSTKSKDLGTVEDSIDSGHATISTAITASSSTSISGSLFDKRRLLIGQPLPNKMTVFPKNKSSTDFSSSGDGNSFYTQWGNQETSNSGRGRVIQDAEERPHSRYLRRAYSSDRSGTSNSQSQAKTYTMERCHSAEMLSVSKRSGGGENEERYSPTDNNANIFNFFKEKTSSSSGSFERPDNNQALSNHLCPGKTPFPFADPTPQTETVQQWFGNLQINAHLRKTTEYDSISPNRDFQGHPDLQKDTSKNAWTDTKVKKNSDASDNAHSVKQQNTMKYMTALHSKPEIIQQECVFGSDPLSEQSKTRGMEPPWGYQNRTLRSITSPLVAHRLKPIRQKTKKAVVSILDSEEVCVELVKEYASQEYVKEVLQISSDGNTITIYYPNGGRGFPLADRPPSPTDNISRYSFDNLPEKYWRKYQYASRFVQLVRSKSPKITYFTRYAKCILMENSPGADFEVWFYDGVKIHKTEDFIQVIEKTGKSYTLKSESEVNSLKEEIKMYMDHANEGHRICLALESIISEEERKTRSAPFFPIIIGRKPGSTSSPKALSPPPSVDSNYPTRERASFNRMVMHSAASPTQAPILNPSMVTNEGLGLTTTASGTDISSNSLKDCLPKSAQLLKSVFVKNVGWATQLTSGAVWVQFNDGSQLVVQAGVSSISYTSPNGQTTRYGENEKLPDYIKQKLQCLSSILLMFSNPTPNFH

PAK4 = PAK4 (Homo sapiens, UniProt O96013)
PAK4, sequence (O96013 whole entry): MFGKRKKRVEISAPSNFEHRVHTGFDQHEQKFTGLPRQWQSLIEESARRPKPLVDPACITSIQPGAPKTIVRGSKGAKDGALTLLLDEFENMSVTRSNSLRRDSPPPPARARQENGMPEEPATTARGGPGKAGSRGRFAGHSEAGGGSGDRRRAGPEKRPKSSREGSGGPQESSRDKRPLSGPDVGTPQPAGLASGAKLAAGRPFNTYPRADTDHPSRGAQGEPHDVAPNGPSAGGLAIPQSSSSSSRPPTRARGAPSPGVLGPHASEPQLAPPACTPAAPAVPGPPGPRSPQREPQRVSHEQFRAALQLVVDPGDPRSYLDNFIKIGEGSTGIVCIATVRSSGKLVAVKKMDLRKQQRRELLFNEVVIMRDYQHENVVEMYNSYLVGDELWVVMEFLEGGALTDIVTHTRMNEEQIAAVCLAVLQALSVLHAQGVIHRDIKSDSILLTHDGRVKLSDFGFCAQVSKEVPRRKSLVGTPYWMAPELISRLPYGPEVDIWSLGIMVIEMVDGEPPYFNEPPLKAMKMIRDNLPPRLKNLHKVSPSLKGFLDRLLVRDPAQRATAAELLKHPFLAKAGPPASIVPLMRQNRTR

VRK2 = VRK2 (Homo sapiens, UniProt Q86Y07)
VRK2, sequence (Q86Y07 whole entry): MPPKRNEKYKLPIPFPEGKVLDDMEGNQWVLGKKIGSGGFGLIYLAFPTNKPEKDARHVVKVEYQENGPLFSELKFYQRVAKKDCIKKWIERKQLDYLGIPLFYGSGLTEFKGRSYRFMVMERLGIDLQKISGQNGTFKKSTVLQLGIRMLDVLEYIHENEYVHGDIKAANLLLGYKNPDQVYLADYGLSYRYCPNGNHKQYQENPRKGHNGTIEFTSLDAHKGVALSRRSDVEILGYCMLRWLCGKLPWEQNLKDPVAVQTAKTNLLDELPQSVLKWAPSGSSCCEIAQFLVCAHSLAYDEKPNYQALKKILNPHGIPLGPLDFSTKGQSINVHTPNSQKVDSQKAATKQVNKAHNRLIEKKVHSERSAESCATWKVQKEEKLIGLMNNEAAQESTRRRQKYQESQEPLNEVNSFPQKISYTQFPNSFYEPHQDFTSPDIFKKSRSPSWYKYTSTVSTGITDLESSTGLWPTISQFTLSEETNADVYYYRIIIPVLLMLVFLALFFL

PRKAA1, sequence (Q13131 whole entry): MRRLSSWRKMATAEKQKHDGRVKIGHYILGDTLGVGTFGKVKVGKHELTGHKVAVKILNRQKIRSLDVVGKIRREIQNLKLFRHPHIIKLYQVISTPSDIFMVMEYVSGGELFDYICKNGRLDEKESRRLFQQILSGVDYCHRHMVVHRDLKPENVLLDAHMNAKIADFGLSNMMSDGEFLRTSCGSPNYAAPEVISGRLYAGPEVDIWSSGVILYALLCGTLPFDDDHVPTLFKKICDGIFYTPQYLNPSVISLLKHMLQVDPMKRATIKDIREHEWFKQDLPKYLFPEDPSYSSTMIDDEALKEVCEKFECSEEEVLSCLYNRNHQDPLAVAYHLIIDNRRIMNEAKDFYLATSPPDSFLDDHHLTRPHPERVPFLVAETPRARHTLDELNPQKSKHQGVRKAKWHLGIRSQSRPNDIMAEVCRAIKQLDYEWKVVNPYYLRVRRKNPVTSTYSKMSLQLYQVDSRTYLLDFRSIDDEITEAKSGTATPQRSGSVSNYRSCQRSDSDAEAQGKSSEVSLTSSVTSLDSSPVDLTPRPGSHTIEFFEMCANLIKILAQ
CSNK1G1, sequence (Q9HCP0 whole entry): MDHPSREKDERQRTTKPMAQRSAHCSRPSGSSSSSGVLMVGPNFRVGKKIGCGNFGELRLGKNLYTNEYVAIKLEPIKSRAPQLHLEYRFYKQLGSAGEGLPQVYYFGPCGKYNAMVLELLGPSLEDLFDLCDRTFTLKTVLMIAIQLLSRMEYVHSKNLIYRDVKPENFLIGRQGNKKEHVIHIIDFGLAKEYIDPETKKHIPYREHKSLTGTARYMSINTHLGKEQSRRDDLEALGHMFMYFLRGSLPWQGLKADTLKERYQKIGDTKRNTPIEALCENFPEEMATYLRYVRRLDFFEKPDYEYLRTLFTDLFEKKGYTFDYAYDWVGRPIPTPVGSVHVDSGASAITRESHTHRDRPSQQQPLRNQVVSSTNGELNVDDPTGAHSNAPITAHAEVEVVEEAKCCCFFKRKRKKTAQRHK
PAK7, sequence (Q9P286 whole entry): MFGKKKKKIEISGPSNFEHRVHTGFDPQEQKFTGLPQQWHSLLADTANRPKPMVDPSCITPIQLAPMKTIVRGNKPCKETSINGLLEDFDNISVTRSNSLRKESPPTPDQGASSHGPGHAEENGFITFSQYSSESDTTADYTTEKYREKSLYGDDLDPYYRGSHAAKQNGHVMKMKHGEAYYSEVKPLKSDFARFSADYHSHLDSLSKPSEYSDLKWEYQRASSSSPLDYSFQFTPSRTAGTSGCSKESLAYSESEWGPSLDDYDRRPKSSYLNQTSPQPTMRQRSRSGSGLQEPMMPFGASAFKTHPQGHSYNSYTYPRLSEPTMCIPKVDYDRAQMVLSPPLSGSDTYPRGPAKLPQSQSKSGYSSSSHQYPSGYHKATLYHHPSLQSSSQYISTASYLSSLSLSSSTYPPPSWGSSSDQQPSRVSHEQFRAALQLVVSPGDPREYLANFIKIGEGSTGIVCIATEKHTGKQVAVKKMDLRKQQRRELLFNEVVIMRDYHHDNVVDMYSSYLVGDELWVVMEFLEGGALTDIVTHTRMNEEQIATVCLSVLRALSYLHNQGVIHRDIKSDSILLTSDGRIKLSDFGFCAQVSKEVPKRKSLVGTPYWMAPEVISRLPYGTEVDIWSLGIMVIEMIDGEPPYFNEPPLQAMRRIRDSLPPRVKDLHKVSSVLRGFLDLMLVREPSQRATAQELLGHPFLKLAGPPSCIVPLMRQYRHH
CHEK2, sequence (O96017 whole entry): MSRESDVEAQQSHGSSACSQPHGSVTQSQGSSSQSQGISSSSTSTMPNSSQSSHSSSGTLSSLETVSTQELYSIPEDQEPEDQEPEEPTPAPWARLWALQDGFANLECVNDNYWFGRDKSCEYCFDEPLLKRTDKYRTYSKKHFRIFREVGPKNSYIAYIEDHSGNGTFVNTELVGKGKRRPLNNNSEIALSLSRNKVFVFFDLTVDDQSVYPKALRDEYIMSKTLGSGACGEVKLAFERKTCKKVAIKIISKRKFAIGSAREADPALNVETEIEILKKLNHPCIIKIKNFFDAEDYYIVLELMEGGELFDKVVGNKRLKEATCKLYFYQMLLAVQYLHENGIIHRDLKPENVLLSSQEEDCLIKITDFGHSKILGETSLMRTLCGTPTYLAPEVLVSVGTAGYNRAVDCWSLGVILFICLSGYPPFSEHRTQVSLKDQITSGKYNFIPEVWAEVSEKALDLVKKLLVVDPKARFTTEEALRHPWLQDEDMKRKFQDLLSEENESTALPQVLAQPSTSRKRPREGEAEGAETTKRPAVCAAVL
CSNK2A1, sequence (P68400 whole entry): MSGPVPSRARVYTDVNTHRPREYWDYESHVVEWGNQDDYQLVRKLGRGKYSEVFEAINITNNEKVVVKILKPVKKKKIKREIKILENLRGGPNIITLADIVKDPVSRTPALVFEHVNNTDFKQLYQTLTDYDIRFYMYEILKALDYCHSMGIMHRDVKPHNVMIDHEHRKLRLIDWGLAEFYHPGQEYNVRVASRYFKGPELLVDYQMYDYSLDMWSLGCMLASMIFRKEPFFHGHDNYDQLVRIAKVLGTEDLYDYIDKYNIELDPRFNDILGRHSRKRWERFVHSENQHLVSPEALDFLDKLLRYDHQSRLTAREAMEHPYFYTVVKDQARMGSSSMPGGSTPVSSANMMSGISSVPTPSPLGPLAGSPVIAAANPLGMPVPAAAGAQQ
CAMK1G, sequence (Q96NX5 whole entry): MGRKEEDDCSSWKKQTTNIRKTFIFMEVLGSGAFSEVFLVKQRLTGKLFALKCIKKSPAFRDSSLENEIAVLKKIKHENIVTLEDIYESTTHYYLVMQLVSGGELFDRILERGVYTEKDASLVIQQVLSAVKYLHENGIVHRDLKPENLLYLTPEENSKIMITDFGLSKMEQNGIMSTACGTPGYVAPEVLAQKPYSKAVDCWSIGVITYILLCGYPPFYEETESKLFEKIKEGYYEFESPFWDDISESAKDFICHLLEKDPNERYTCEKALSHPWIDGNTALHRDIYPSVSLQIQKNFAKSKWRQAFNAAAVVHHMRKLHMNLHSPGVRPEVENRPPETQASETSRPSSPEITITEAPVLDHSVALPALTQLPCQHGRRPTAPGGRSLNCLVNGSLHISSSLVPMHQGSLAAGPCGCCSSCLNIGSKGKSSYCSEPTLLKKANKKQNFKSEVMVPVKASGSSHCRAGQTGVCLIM

What does the source list for CCN1/C(=C/C(C)=O)Sc2ccc(OC)cc21 [compound 2, TG003]?
ΔTm inhibitor 2 (PRKAA1): -0.3 °C; ΔTm inhibitor 2 (CAMK1G): -0.1 °C; ΔTm inhibitor 2 (CSNK1G1): 3.2 °C; ΔTm inhibitor 2 (CSNK2A1): 2.6 °C; ΔTm inhibitor 2 (PAK7): -0.1 °C; ΔTm inhibitor 2 (CHEK2): 0.1 °C; ΔTm inhibitor 2 (GAK): 0.2 °C; ΔTm inhibitor 2 (PLK4): 0.2 °C; ΔTm inhibitor 2 (PAK4): 1.7 °C; ΔTm inhibitor 2 (VRK2): 0.2 °C

How did the “ΔTm inhibitor 1” value (PRKAA1) turn out when CC(=O)c1cccc(-c2cnc3ccc(NCC4CC4)nn23)c1 [compound 1, K00135] was run?
The value was 1.3 °C.

And the “ΔTm inhibitor 1” value (CAMK1G)?
Its value is 0.6 °C.

What about the “ΔTm inhibitor 1” value (CSNK1G1) of the same molecule?
Its value is 1.7 °C.

And the “ΔTm inhibitor 1” value (CSNK2A1)?
The value was 3.3 °C.

And the “ΔTm inhibitor 1” value (PAK7)?
The value was 0.4 °C.

What about the “ΔTm inhibitor 1” value (CHEK2) of the same molecule?
Its value is 0.8 °C.

And the “ΔTm inhibitor 1” value (GAK)?
Its value is 7.3 °C.

What about the “ΔTm inhibitor 1” value (PLK4) of the same molecule?
Its value is 2.6 °C.

And the “ΔTm inhibitor 1” value (PAK4)?
The value was 1.5 °C.

What about the “ΔTm inhibitor 1” value (VRK2) of the same molecule?
The value was 1.5 °C.

Nc1nccc(-c2ccc3noc(-c4ccc(Cl)cc4)c3c2)n1 [compound 4, K00972] was tested. Which “ΔTm inhibitor 4” value (PRKAA1) did it give?
The value was 0.5 °C.

And the “ΔTm inhibitor 4” value (CAMK1G)?
The value was 0.3 °C.

What about the “ΔTm inhibitor 4” value (CSNK1G1) of the same molecule?
The value was 1.0 °C.

And the “ΔTm inhibitor 4” value (CSNK2A1)?
Its value is 0.2 °C.

What about the “ΔTm inhibitor 4” value (PAK7) of the same molecule?
Its value is 0.6 °C.

What about the “ΔTm inhibitor 4” value (CHEK2) of the same molecule?
Its value is 0.5 °C.

What about the “ΔTm inhibitor 4” value (GAK) of the same molecule?
Its value is 3.3 °C.

And the “ΔTm inhibitor 4” value (PLK4)?
The value was 0.4 °C.

What about the “ΔTm inhibitor 4” value (PAK4) of the same molecule?
The value was 1.5 °C.

And the “ΔTm inhibitor 4” value (VRK2)?
Its value is 0.0 °C.
